Data from US6410585B1, “Inhibitors of protein tyrosine phosphatase” (priority 1997, dated 2002).
Values joined by “and” are separate entries in the source; they are usually repeats but may differ in a detail not shown here. Identical values can stand only once.

Legend:
human PTP1B = molecular target: T1, human PTP1B (Homo sapiens, UniProt P18031); assay: PTP1B assay, pNPP hydrolysis, assayed exactly as for PTP1; format: biochemical; details: for inhibition at 1 µM: Conc 1 uM; for inhibition at 1 µM / inhibition at 10 µM / inhibition at 100 µM: Table 2, read-out: PTP1B Inhib PTP1B. % Inhib; for PTP1B Inhib PTP1B. % Inhib: Table 2
T1 construct: human PTP1B (amino acid residues 1-321); made in house; host or cells: E. coli BL21(DE3)
T1 sequence (P18031 1-321): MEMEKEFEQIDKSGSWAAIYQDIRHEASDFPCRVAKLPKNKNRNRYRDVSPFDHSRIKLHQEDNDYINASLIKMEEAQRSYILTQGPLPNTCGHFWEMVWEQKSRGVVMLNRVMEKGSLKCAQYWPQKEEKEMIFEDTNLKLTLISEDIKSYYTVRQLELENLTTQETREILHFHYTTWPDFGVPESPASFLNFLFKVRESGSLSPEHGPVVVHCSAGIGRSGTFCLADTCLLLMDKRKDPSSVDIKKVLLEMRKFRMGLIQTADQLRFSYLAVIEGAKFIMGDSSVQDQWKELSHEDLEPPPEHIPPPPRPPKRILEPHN
Excerpt: The equivalent construct of human PTP1B (amino acid residues 1-321) (cloned from a human placental library), without the GST tag and thrombin cleavage site, was inserted into a pMB replicon and transformed into E. coli BL21(DE3), a strain containing a chromosomal copy of the gene for T7 RNA polymerase under control of a lacUV5 promoter. Expression of PTP1B was induced with isopropyl thiogalactose and the soluble protein was purified by ion exchange, hydrophobic interaction and gel exclusion chromatography for use in the assay to identify PTP inhibitors.
PTP1 activity is measured using either p-nitrophenol phosphate (pNPP) or a triphosphopeptide (that matches residues 1142 through 1153 of the β-subunit and the insulin receptor) as substrate in a 96-well microtiter plate format. An assay pH of 7.2 is used for standard assays (measured 405=9800 at pH 7.2).
Human PTP1B, which is highly homologous to rat PTP1, was assayed exactly as described above for PTP1.
Standard assays are conducted at room temperature in a total volume of 0.2 ml that contains Hepes buffer (50 mM, pH 7.2), NaCl (50 mM), EDTA (1 mM), DTT (1 mM), bovine serum albumin (1 mg/ml), pNPP (1 mM) and PTP1 (35 ng/ml). Compounds (2 μl of 10 mM solutions) are pipetted into wells of microtiter plates followed by 198 μl of premixed reaction mix (with PTP1 and pNPP added immediately before use). The rate of change in A405 is recorded for 60 min. Two wells on each plate contain DMSO controls and two wells contain sodium orthovanadate (1 mM) which inhibits PTP1-catalyzed hydrolysis of pNPP completely. Data are expressed as percent inhibition relative to the average of the DMSO controls measured on the same microtiter plate.

rat PTP1 = molecular target: T2, rat PTP1 (Rattus norvegicus, UniProt P20417); assay: PTP1 assay, pNPP hydrolysis (rate of change in A405); format: biochemical; details: pNPP hydrolysis, Table 2, read-out: PTP1 Inhib PTP1N. % Inhib; for inhibition at 1 µM: Conc 1 uM; for inhibition at 10 µM: Conc 10 uM; for inhibition at 100 µM: Conc 100 uM
T2 construct: a C-terminal truncation of rat PTP1 (amino acid residues 1-322); GST (N, cleaved yes); made in house; host or cells: E. coli strain TG-1 (pGEX-2T)
T2 sequence (P20417 1-322): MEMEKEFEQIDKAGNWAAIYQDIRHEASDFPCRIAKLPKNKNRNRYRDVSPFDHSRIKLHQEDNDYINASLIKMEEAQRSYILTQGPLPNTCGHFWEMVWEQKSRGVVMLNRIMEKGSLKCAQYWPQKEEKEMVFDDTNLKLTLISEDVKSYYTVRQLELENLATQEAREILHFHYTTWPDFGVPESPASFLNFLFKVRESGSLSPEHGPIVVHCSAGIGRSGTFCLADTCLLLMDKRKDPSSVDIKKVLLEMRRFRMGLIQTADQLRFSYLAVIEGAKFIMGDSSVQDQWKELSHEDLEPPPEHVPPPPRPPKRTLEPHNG
Outline: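 Thrombin-cleaved rat PTP1 residues 1-322 (35 ng/ml) with 1 mM pNPP in 50 mM Hepes pH 7.2, NaCl, EDTA, DTT, BSA at room temperature. A405 rate followed 60 min. Compounds added as 10 mM solutions; percent inhibition relative to plate DMSO controls, 1 mM orthovanadate as full-inhibition control.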

Compound | inhibition at 1 µM (human PTP1B) | inhibition at 10 µM (human PTP1B; Conc 10 uM) | inhibition at 100 µM (human PTP1B; Conc 100 uM) | inhibition at 1 µM (rat PTP1) | inhibition at 10 µM (rat PTP1) | inhibition at 100 µM (rat PTP1) | melting point | PTP1B Inhib PTP1B. % Inhib (human PTP1B; Conc 10 uM) | PTP1B Inhib PTP1B. % Inhib (human PTP1B; Conc 100 uM)
CCCCCNC(=O)C(Cc1ccc(OC(COO)COO)cc1)NC(=O)C(C)NC(=O)OC(C)(C)C (stereo not drawn) | 7% | 36% | 83% | 0% | 22% | 76% |  |  | 
CCCCCNC(=O)[C@H](Cc1ccc(OCC(=O)O)c(C(=O)O)c1)NC(=O)[C@@H](Cc1ccccc1)N1CCCC1=O [Example 143, 2-(carboxymethoxy)-5-[(2S)-3-oxo-2-{[(2R)-2-(2-oxo-1-pyrrolidinyl)-3-phenylpropanoyl]amino}-3-(pentylamino)propyl]benzoic Acid] |  |  |  |  |  |  | 96 to 97 °C |  | 
CCCCCNC(=O)C(Cc1ccc(OC(COO)COO)cc1)NC(=O)C(Cc1ccc(C(=O)c2ccccc2)cc1)NC(=O)OC(C)(C)C (stereo not drawn) | 9% | 42% | 90% | 10% | 44% | 91% |  |  | 
CCCCCNC(=O)C(Cc1ccc(OCCOO)c(COO)c1)NC(=O)C(Cc1ccccc1)NC(=O)OC(C)(C)C (stereo not drawn) [drawing 162] |  |  |  | 40% | 84% | 97% |  | 78% and 54% and 43% | 97% and 89% and 87%
CCCCCNC(=O)C(Cc1ccc(OC(COO)COO)cc1)NC(=O)C(Cc1ccccc1)NC(=O)OC(C)(C)C (stereo not drawn) | 7% | 48% | 91% | 9% | 42% | 88% |  |  | 
CCCCCNC(=O)C(Cc1ccc(OC(COO)COO)cc1)NC(=O)C(Cc1ccccc1)NC(=O)CCC(=O)O (stereo not drawn) | 45% | 87% | 99% | 37% | 84% | 97% |  |  | 
CCCCCNC(=O)C(Cc1ccc(OC(COO)COO)cc1)NC(=O)C(Cc1ccccc1)NC(=O)NC(C)(C)C (stereo not drawn) | 9% | 40% | 86% |  |  |  |  |  | 
CCCCCNC(=O)C(Cc1ccc(OCCOO)c(COO)c1)NC(=O)CCc1ccccc1 (stereo not drawn) | 4% | 15% | 60% |  |  |  |  |  | 
CCCCCNC(=O)C(Cc1ccc(OCCOO)c(COO)c1)NC(=O)C(Cc1ccccc1)NC(=O)CCCc1ccccc1 (stereo not drawn) | 19% | 70% | 96% |  |  |  |  |  | 
CCCCCNC(=O)[C@H](Cc1ccc(OCC(=O)O)c(C(=O)O)c1)NC(=O)C(Cc1ccccc1)N1CCCC1=O (stereo partly drawn) | 24% | 71% | 94% |  |  |  |  |  | 
CCCCCNC(=O)C(Cc1ccc(OC(COO)C(=O)O)cc1)NC(=O)NC(Cc1ccc(OCc2ccccc2)cc1)C(=O)O (stereo not drawn) | 14% | 63% | 97% | 8% | 55% | 96% |  |  | 
CCCCCNC(=O)[C@H](Cc1ccc(OC(F)C(=O)O)c(C(=O)O)c1)NC(=O)[C@H](Cc1ccccc1)NC(=O)OC(C)(C)C (stereo partly drawn) | 34% | 76% | 95% |  |  |  |  |  | 
CCCCCNC(=O)[C@H](Cc1ccc(OCC(=O)O)c(-c2nn[nH]n2)c1)NC(=O)[C@H](Cc1ccccc1)NC(=O)OC(C)(C)C |  |  | 87% |  |  |  |  |  | 97%
CCCCCNC(=O)C(Cc1ccc(OC(C(=O)O)C(=O)O)cc1)NC(=O)[C@H](Cc1c[nH]c2ccccc12)NC(=O)OC(C)(C)C (stereo partly drawn) | 10% | 44% | 89% |  |  |  |  |  | 
CC(C)(C)OC(=O)N[C@@H](Cc1ccccc1)C(=O)N[C@H](CO)Cc1ccc(OCC(=O)O)c(C(=O)O)c1 [Example 138, 5-[(2S)-2-({(2S)-2-[(tert-butoxycarbonyl)amino]-3-phenylpropanoyl}amino)-3-hydroxypropyl]-2-(carboxymethoxy)benzoic Acid] |  |  |  |  |  |  | 168.8 to 172.3 °C |  | 
CCCCCNC(=O)C(Cc1ccc(OCCOO)c(COO)c1)NC(=O)C(C)NC(=O)OC(C)(C)C (stereo not drawn) | 8% | 43% | 86% |  |  |  |  |  | 
CCCCCNC(=O)[C@H](Cc1ccc(OCC(=O)NO)c(C(=O)O)c1)NC(=O)[C@H](Cc1ccccc1)NC(=O)OC(C)(C)C | 6% | 8% | 30% |  |  |  |  |  | 
CCCCCNC(=O)C(Cc1ccc(OC(COO)C(=O)O)cc1)C(=O)NCCC(=O)O (stereo not drawn) | 9% | 15% | 48% |  |  |  |  |  | 
CCCCCNC(=O)C(Cc1ccc(OCCOO)c(COO)c1)NC(=O)C(Cc1ccccc1)NC(=O)Cc1ccc(OC)cc1 (stereo not drawn) | 46% | 87% | 97% |  |  |  |  |  | 
CCCCCNC(=O)C(Cc1ccc(OC(COO)COO)cc1)NC(=O)C(CC(C)C)NC(=O)OC(C)(C)C (stereo not drawn) | 4% | 24% | 76% |  |  |  |  |  | 
CCCCCNC(=O)C(Cc1ccc(OC(COO)COO)cc1)NC(=O)C(CC[S+](C)[O-])NC(=O)OC(C)(C)C (stereo not drawn) | 7% | 21% | 67% |  |  |  |  |  | 
CCCCCNC(=O)[C@H](Cc1ccc(OC(C(=O)O)C(=O)O)cc1)NC(=O)C(Cc1ccccc1)NC(=O)OC(C)(C)C (stereo partly drawn) | 2% | 8% | 44% |  |  |  |  |  | 
CCCCCNC(=O)C(Cc1ccc(OCCOO)c(COO)c1)NC(=O)C(Cc1ccccc1)NC(=O)CCOC (stereo not drawn) | 37% | 83% | 97% |  |  |  |  |  | 
CCCCCNC(=O)[C@H](Cc1ccc(OCC(=O)O)c(C(=O)O)c1)NC(=O)C(Cc1ccccc1)NC(=O)CSc1nnc[nH]1 (stereo partly drawn) | 36% | 82% | 96% |  |  |  |  |  | 
CCCCCNC(=O)C(Cc1ccc(OC(COO)COO)cc1)NC(=O)C(Cc1ccccc1)NC(=O)CCNC(=O)OC(C)(C)C (stereo not drawn) | 14% | 62% | 93% |  |  |  |  |  | 
